{"source": "patent US10383906B2", "about": "“Method for treating skin diseases with mangosteen rind extract” (XANTHO BIOTECHNOLOGY CO., LTD, priority 2015, dated 2019)", "test_system": "TNCB-induced atopic dermatitis in mice ears", "experiment": "TNCB-induced atopic dermatitis in mice: ear thickness, ear weight, ear appearance, histopathology", "format": "in vivo, BALB/c mice", "conditions": "for Pathological slice average inflammation degree (average severity of the pathological changes): mice ears, HE staining, after three weeks of daily test substance, scale Grade 1 minimal to Grade 5 extremely severe", "procedure": "The animals used in the experiments were 8-week-old BALB/c mice (purchased from LESCO Biotech), the body weight were 25 to 28 g and were quarantined by veterinarians for one week before entering the breeding room. The animals were divided into 9 groups, 3 in each group, a total of 27 mices. The temperature of the breeding room was set at 21±2° C., the humidity was set at 30 to 70%, and the environment was set for 12/12 hour light-dark cycle with unlimited supply of food and water.\nIn the animal experiments, 2-chloro-1,3,5-trinitrobezene (TNCB) was used to induce atopic dermatitis in mice and acetone was used as the solvent to prepare 1% of TNCB which was applied to mice ears (once every 2 days, the volume was 4 ml/kg) one week prior to testings. […] In addition, for those groups that were simultaneously provided with test ointments and test oral substances, the oral dose was 60 mg/kg and the volume was 10 ml/kg. When TNCB and the test substance were given on the same day, in order to reduce the effect of interactions between each other, TNCB and test substance were given at least 1 hour apart. The mangosteen paste of 0.5%, 1%, 2%, 3%, 5% respectively contained 20 mg/kg, 40 mg/kg, 80 mg/kg, 120 mg/kg and 200 mg/kg of extract of mangosteen rind.\nChanges in body weight and ear thickness of the mice were monitored twice weekly. Blood of all experimental animals were collected before TNCB induction, after the induction and before the test substance was given and when being sacrificed. After the blood was centrifuged at 3000 rpm for 30 minutes at 4° C., serum samples were obtained and stored.\nAll animals were sacrificed at the end of the third week after the test substance was given. Mice ears were removed, photographed and stored in 10% of formalin solution for histopathological observation. HE staining was used for the pathological observation (conducted by the National Laboratory Animal Center).\nData are expressed as means±standard deviation […] and Student's t-test was used to compare the differences among treatment groups. Asterisks indicate significant differences, *p<0.05; **p<0.01; ***p<0.001.", "key": {"[1]": {"conditions": "inner rind versus outer rind extract experiment (4%)"}}}
{"smiles": "CC(=O)OCC(=O)[C@@]1(O)CC[C@H]2[C@@H]3CCC4=CC(=O)CC[C@]4(C)[C@H]3[C@@H](O)C[C@@]21C", "note": "[1% Hydrocortisone Acetate, hydrocortisone acetate]", "values": [{"measurement": "Inhibition rate, ear thickness", "setting": "degree of swelling of mice ears, compared with the model group, mangosteen paste dose series", "value": 52.7, "unit": "%"}, {"measurement": "Ear appearance after being sacrificed", "setting": "ears removed at end of experiment (FIG. 4)", "value": "intact ear contour"}, {"measurement": "Inhibition rate, ear weight", "setting": "ears weighed after sacrifice, compared with the model group, mangosteen paste dose series", "value": 82.4, "unit": "%"}, {"measurement": "Inhibition rate (%), ear thickness", "setting": "[1]", "value": 50.75, "unit": "%"}, {"measurement": "Inhibition rate (%), ear weight", "setting": "[1]", "value": 68.91, "unit": "%"}, {"measurement": "Pathological slice average inflammation degree (average severity of the pathological changes)", "value": "3 ± 0", "unit": "Grade"}, {"measurement": "Pathological slice average inflammation degree (average severity of the pathological changes)", "setting": "listed as 1% hydrocortisone acetate", "value": 3, "unit": "Grade"}]}
